Laboratory results published in the supplement of paper PMC10331698.
± gives the standard deviation of the averaged measurements.

Key:
Experiment in all cases: level (log10 ratio to DMSO vehicle control); higher = higher biomarker level / cell amount than vehicle control
Settings in all cases: in DMSO
[1] = compound: O=P(O)(O)CCC(F)(F)C(F)(F)C(F)(F)C(F)(F)C(F)(F)C(F)(F)F [2-(Perfluorohexyl)ethylphosphonic acid]
Description: (§1)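 BioMAP Diversity Plus panel of 12 human primary cell co-culture systems (3C, 4H, LPS, SAg, BT, BF4T, BE3C, CASM3C, HDF3CGF, KF3CT, MyoF, Mphg). Compounds were added 1 h before stimulation and left for 24 h (MyoF 48 h; BT 72 h for soluble read-outs or 6 d for IgG). Biomarkers were read by ELISA, cytotoxicity by SRB, PBMC viability and proliferation by Alamar Blue. Each well value was divided by the mean of 8 DMSO control wells on the same plate and log10 transformed; duplicate blinded samples were tested at 4 concentrations.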

[2] = compound: O=S(=O)(O)CCC(F)(F)C(F)(F)C(F)(F)C(F)(F)F [4:2 Fluorotelomer sulfonic acid]
Description: as §1

[3] = compound: FC(F)(F)C(F)(F)C(F)(F)C(F)(F)CCI [1H,1H,2H,2H-Perfluorohexyl iodide]
Description: as §1

[4] = compound: O=S(=O)(OCC(F)(F)F)C(F)(F)C(F)(F)C(F)(F)C(F)(F)F [2,2,2-Trifluoroethyl perfluorobutanesulfonate]
Description: as §1

[5] = compound: C=CC(=O)OCC(F)(F)C(F)(F)C(F)(F)C(F)(F)C(F)(F)C(F)(F)C(F)(F)C(F)F [1H,1H,9H-Perfluorononyl acrylate]
Description: as §1

[6] = compound: C=CC(=O)OCCC(F)(F)C(F)(F)C(F)(F)C(F)(F)C(F)(F)C(F)(F)C(F)(F)C(F)(F)F [8:2 Fluorotelomer acrylate]
Description: as §1

Test System	level (log10) ([1]; 6700 nM)	level (log10) ([1]; 20000 nM)	level (log10) ([1]; 60000 nM)	level (log10) ([2]; 6700 nM)	level (log10) ([2]; 20000 nM)	level (log10) ([2]; 60000 nM)	level (log10) ([3]; 6700 nM)	level (log10) ([3]; 20000 nM)	level (log10) ([3]; 60000 nM)	level (log10) ([4]; 6700 nM)	level (log10) ([4]; 20000 nM)	level (log10) ([4]; 60000 nM)	level (log10) ([5]; 6700 nM)	level (log10) ([5]; 20000 nM)	level (log10) ([5]; 60000 nM)	level (log10) ([6]; 6700 nM)	level (log10) ([6]; 20000 nM)	level (log10) ([6]; 60000 nM)
KF3CT:CCL2/MCP-1	-0.0405 ± 0.019	-0.0515 ± 0.023	-0.043 ± 0.013	-0.0205 ± 0.012	-0.0125 ± 0.012	-0.0015 ± 0.025	-0.0255 ± 0.026	-0.015 ± 0.04	-0.004 ± 0.047	-0.018 ± 0.057	-0.0485 ± 0.044	-0.022 ± 0.014	-0.0075 ± 0.043	-0.057 ± 0.024	-0.137 ± 0.085	-0.0265 ± 0.042	-0.0415 ± 0.0092	-0.0725 ± 0.04
lMphg:sIL-10	-0.0015 ± 0.083	-0.091 ± 0.0014	-0.0775 ± 0.09	0.015 ± 0.041	-0.0485 ± 0.032	-0.0545 ± 0.0064	-0.072 ± 0.047	-0.043 ± 0.03	-0.0495 ± 0.042	0.072 ± 0.0042	0.0465 ± 0.0035	-0.171 ± 0.052	-0.0335 ± 0.015	0.0005 ± 0.0092	0.029 ± 0.033	-0.058 ± 0.016	-0.014 ± 0.062	-0.0465 ± 0.012
HDF3CGF:SRB	-0.025 ± 0.045	0.0355 ± 0.029	0.001 ± 0.05	-0.0365 ± 0.037	-0.0075 ± 0.033	0.033 ± 0.058	0.0085 ± 0.037	-0.011 ± 0.0014	0.0105 ± 0.028	0.0205 ± 0.012	0.0125 ± 0.029	0.0325 ± 0.035	-0.017 ± 0.059	-0.011 ± 0.072	-0.0635 ± 0.079	-0.02 ± 0.0071	-0.0305 ± 0.037	0.003 ± 0.0014
CASM3C:CXCL8/IL-8	-0.0185 ± 0.013	-0.0015 ± 0.0021	0.0145 ± 0.005	0.0035 ± 0.0035	-0.0095 ± 0.026	0.0075 ± 0.025	0.0105 ± 0.022	0.0145 ± 0.028	0.0255 ± 0.06	0.0335 ± 0.0064	0.031 ± 0.048	0.024 ± 0.042	0.0175 ± 0.021	0.025 ± 0.0028	0.0415 ± 0.03	-0.0185 ± 0.012	-0.0165 ± 0.00071	-0.0085 ± 0.00071
lMphg:SRB-Mphg	-0.029 ± 0.023	-0.0255 ± 0.026	-0.0125 ± 0.032	-0.004	0.01	0.0065 ± 0.016	-0.0005 ± 0.03	-0.004 ± 0.031	0.0005 ± 0.025	-0.005 ± 0.0071	-0.019 ± 0.014	-0.024 ± 0.031	-0.1115 ± 0.00071	-0.082 ± 0.11	0.0085 ± 0.097	-0.026 ± 0.0014	-0.012 ± 0.021	0.003 ± 0.037
KF3CT:CD54/ICAM-1	-0.0015 ± 0.011	0.006 ± 0.028	0.02 ± 0.02	-0.006 ± 0.0085	-0.0125 ± 0.0092	-0.0125 ± 0.0078	-0.0045 ± 0.025	0.016 ± 0.016	-0.005 ± 0.027	0.015 ± 0.03	-0.0055 ± 0.0092	-0.006 ± 0.013	-0.0185 ± 0.005	-0.0245 ± 0.0078	-0.048 ± 0.0085	0.003 ± 0.0042	-0.0155 ± 0.029	-0.0455 ± 0.019
BE3C:uPA	-0.016 ± 0.0099	-0.004 ± 0.0071	0.0075 ± 0.012	-0.001 ± 0.014	0 ± 0.0057	-0.0035 ± 0.0092	-0.001 ± 0.0071	-0.007 ± 0.0071	-0.001 ± 0.0014	-0.001 ± 0.0099	-0.013 ± 0.0014	-0.0135 ± 0.023	-0.0335 ± 0.0092	0.0015 ± 0.0092	-0.0195 ± 0.0035	-0.0175 ± 0.005	-0.008 ± 0.0028	-0.001 ± 0.017
MyoF:TIMP-1	-0.035 ± 0.017	0.013 ± 0.0042	0.028 ± 0.023	-0.0465 ± 0.069	-0.0285 ± 0.047	-0.0095 ± 0.036	0.019 ± 0.041	0.024 ± 0.083	0.021 ± 0.12	-0.0305 ± 0.042	-0.0235 ± 0.011	-0.056 ± 0.0099	-0.0205 ± 0.0078	-0.015 ± 0.0085	-0.008 ± 0.03	-0.0615 ± 0.011	-0.039 ± 0.025	-0.014 ± 0.0042
CASM3C:Proliferation	-0.0385 ± 0.0064	-0.05 ± 0.013	-0.06 ± 0.0085	-0.012 ± 0.021	-0.044 ± 0.0057	0 ± 0.031	-0.01 ± 0.0071	-0.0155 ± 0.016	-0.0535 ± 0.0064	0.0265 ± 0.0064	-0.018 ± 0.027	-0.026 ± 0.03	0.03 ± 0.034	0.0175 ± 0.057	-0.03 ± 0.093	0.006 ± 0.021	-0.05 ± 0.013	-0.045 ± 0.037
MyoF:Decorin	-0.0035 ± 0.023	0.0075 ± 0.0021	0.0385 ± 0.00071	-0.0075 ± 0.0078	-0.012 ± 0.0014	0.004 ± 0.0028	0.0085 ± 0.012	0.011 ± 0.025	0.024 ± 0.075	0.0135 ± 0.066	0.027 ± 0.014	0.008 ± 0.052	-0.014 ± 0.024	-0.0655 ± 0.0021	-0.065 ± 0.052	-0.0175 ± 0.0078	-0.0185 ± 0.0078	-0.016 ± 0.017
HDF3CGF:PAI-I	-0.027 ± 0.023	-0.027 ± 0.0014	-0.0925 ± 0.021	0.0085 ± 0.044	-0.011 ± 0.014	-0.02 ± 0.021	0.002 ± 0.028	0.0045 ± 0.0035	-0.0105 ± 0.044	-0.0125 ± 0.0092	-0.02 ± 0.024	-0.021 ± 0.0014	0.0785 ± 0.076	0.025 ± 0.04	0.0165 ± 0.1	-0.0135 ± 0.013	-0.0665 ± 0.0021	-0.071 ± 0.0057
CASM3C:M-CSF	0.0025 ± 0.005	0.0115 ± 0.011	-0.0055 ± 0.037	-0.0265 ± 0.011	-0.02 ± 0.0028	0.001 ± 0.03	-0.013 ± 0.0014	-0.02 ± 0.0014	0.0035 ± 0.049	-0.011 ± 0.0057	0.004 ± 0.0042	0.0365 ± 0.03	-0.0225 ± 0.06	0.001 ± 0.031	-0.041 ± 0.071	0.003 ± 0.0057	0.0095 ± 0.032	0.0185 ± 0.04
MyoF:Collagen IV	-0.038 ± 0.0071	-0.019 ± 0.03	-0.0405 ± 0.0021	-0.0075 ± 0.00071	-0.037 ± 0.0057	-0.0225 ± 0.025	0.011 ± 0.031	0.024 ± 0.017	0.021 ± 0.05	-0.0175 ± 0.044	-0.014 ± 0.038	0.0205 ± 0.056	0.02 ± 0.0014	0.015 ± 0.024	0.0035 ± 0.021	-0.022 ± 0.0042	-0.002 ± 0.0057	-0.0135 ± 0.036
HDF3CGF:CD106/VCAM-1	0.041 ± 0.013	0.0625 ± 0.013	0 ± 0.0057	0.0515 ± 0.081	0.0365 ± 0.094	0.021 ± 0.11	-0.043 ± 0.082	-0.0425 ± 0.026	-0.168 ± 0.022	-0.022 ± 0.0099	-0.05 ± 0.034	-0.114 ± 0.037	-0.0565 ± 0.079	-0.29 ± 0.029	-0.453 ± 0.14	0.0005 ± 0.022	0.011 ± 0.0071	0.007 ± 0.0085
